Laboratory results: patent publication US9750742B2, “Small molecular inhibitors of RAD51 recombinase and methods thereof” (Drexel University, priority 2011, dated 2017)

Legend:
MEF cells = experiment: Clonogenic survival assay, MEF; format: cell-based, mouse; details: AZD2281 1 μM versus MMS only
Description: Briefly, MEF cells were trypsinized and the appropriate number of cells was replated on 10 cm tissue culture dishes. […] Cells were fixed and stained using staining solution (0.05% crystal violet, 50% methanol in PBS); colonies were counted using an AlphaImager 3400 (Alpha Innotech Inc.). The percent of survival was determined as described (Hall & Giccia, 2005, “Radiobiology for the Radiologist”, 6th Ed., Philadelphia, Pa.: Lippincott Williams & Wilkins, pp. 30-45). The percent of survival obtained from untreated cells was normalized to 100% survival.

RAD51 = molecular target: T1, RAD51 (Homo sapiens, UniProt Q06609); experiment: D-loop assay for RAD51; format: biochemical; details: for inhibitory effect on D-loop formation by RAD51, in words: B02 derivatives 50 μM; for IC50: RAD51 1 μM, ssDNA 3 μM, dsDNA 50 μM, compound added after filament formation
T1 construct: made in house
T1 sequence (Q06609 1-339): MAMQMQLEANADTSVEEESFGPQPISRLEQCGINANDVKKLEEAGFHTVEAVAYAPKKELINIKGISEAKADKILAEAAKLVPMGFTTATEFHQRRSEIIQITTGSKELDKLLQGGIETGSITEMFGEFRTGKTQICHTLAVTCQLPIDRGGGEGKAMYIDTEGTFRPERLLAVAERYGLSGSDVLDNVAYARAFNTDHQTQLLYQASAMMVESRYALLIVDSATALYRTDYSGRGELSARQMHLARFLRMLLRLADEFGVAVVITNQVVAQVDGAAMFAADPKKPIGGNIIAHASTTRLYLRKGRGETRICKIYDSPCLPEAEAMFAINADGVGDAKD
Description: When indicated, chemical compounds in question were added in specified concentrations and incubation was continued for 30 min at 37° C. D-loop formation was initiated by addition of supercoiled pUC19 dsDNA (50 μM, nt) and continued for 15 min. Reactions were stopped by addition of SDS to 1% (w/v) and proteinase K to 880 μg ml^−1 followed by incubation for 15 min at 37° C. […] The yield of joint molecules was expressed as a percentage of the total plasmid DNA.
The reaction was deproteinized and analyzed as described above.
(§1) IC50 values were calculated using GraphPad Prism V5.0 software and the sigmoidal dose-response function. The data were obtained from three independent repeats of experiments.

RecA = molecular target: T2, RecA (Escherichia coli, UniProt P0A7G6); experiment: biochemical; parameters: species or system E. coli; details: for IC50: IC50 (RecA), RecA 1 μM, ssDNA 3 μM, dsDNA 50 μM; for inhibition of RecA DNA strand exchange, in words: up to 100 μM
T2 construct: purchased USB Inc. (Cleveland, Ohio)
T2 sequence (P0A7G6 whole entry): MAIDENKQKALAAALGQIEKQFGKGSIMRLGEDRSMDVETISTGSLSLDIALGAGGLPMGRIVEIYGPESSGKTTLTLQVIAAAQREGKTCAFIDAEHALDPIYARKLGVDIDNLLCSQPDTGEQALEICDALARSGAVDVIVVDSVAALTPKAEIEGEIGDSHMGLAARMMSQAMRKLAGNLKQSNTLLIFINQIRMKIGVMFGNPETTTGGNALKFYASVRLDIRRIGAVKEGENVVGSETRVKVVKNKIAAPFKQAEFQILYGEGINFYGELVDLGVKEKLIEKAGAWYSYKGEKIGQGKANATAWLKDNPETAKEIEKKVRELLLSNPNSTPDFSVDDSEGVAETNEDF
Description: (Mazin et al., 2000, EMBO J. 19:1148-56). When indicated, chemical compounds in specified concentrations were added and incubation was continued for 30 min at 37° C. D-loop formation was initiated by addition of supercoiled pUC19 dsDNA (50 μM, nt) and carried out for 3 min at 37° C. The DNA products were deproteinized and analyzed as described above for the Rad51-promoted reaction.
as §1

In the case of `O=C(c1cc(Cc2n[nH]c(=O)c3ccccc23)ccc1F)N1CCN(C(=O)C2CC2)CC1` [AZD2281, 4-[(3-[(4-cyclopropylcarbonyl)piperazin-4-yl]carbonyl)-4-fluorophenyl]methyl(2H)phthalazin-1-one, reference compound], the “sensitivity to MMS” value (MEF cells) is reported as “more sensitive”.

With `Cn1c(C=Cc2cccnc2)nc2ccccc2c1=O` [Compound C3e] the “inhibitory effect on D-loop formation by RAD51, in words” value (shortened to “inhibitory effect on D-loop formation”) (RAD51) was “eliminates the inhibition”.

`CCn1c(/C=C/c2cccnc2)nc2ccccc2c1=O` [Compound C3a, (E)-3-ethyl-2-(2-(pyridin-3-yl)vinyl)quinazolin-4(3H)-one] was tested, and the “inhibitory effect on D-loop formation” value (RAD51) was “retain the inhibitory effect”, the IC50 (RAD51) was 15.3 µM and the IC50 (RecA) was greater than 100 µM. The “inhibition of RecA DNA strand exchange, in words” value (RecA) was “do not inhibit”.

In the case of `O=c1c2ccccc2nc(C=Cc2cccnc2)n1-c1ccccc1` [Compound C3d], the “inhibitory effect on D-loop formation” value (RAD51) is reported as “eliminates the inhibition”.

In the case of `Cc1ccc(-n2c(C=Cc3cccnc3)nc3ccccc3c2=O)cc1` [Compound C3c], the “inhibitory effect on D-loop formation” value (RAD51) is reported as “eliminates the inhibition”.

`Cc1cccc(-n2c(/C=C/c3cccnc3)nc3ccccc3c2=O)c1` [Compound C3b, (E)-2-(2-(pyridin-3-yl)vinyl)-3-(m-tolyl)quinazolin-4(3H)-one] was tested, and the “inhibitory effect on D-loop formation” value (RAD51) was “retain the inhibitory effect”, the IC50 (RAD51) was 27.3 µM and the IC50 (RecA) was greater than 100 µM. For the same compound, the “inhibition of RecA DNA strand exchange, in words” value (RecA) was “do not inhibit”.
